Four compounds from PMC7450057, “Enhancing intracellular accumulation and target engagement of PROTACs with reversible covalent chemistry” (Nature Communications, 2020) can be followed below.

Data set [1] concerns the target BTK (Homo sapiens, UniProt Q06187). Kind of data set: BTK degradation in MOLM-14 cells (western blot). The class given is cell-based. More on the design: endogenous in cells; host or cells: MOLM-14. The settings on record: for BTK degradation (in words): MOLM-14 cells.
In data set [2] the test system is Maver-1. Briefly: IC50 in MCL cell lines (Supplementary Table 2), Maver-1. The settings on record: for IC50: Maver-1, triplicates; for Cell Viability (%): Maver-1 cells, replicate wells.
Data set [3] is described as follows: Permeability by lipid-PAMPA method (Pharmaron). The settings on record: PAMPA; for recovery at 16 h, 10 μM: Recovery%; for Papp at 16 h, 10 μM: pH 7.4. The class given is in vitro ADME. On the procedure: The permeability of compounds was measured using Lipid-PAMPA method by Pharmaron. Preparation of stock solutions: testosterone and methotrexate were used as control compounds in this assay. The stock solutions of positive controls were prepared in DMSO or acetonitrile at the concentration of 10 mM. Prepare a stock solution of compounds in DMSO at the concentration of 10 mM, and further dilute with PBS (pH 7.4). […]
Assay procedures: prepare a 1.8% solution (w/v) of lecithin in dodecane, and sonicate the mixture to ensure a complete dissolution. Carefully pipette 5 μL of the lecithin/dodecane mixture into each acceptor plate well (top compartment), avoiding pipette tip contact with the membrane. Immediately after the application of the artificial membrane (within 10 min), add 300 μL of PBS (pH 7.4) solution to each well of the acceptor plate. Add 300 μL of drug-containing solutions to each well of the donor plate (bottom compartment) in triplicate. Slowly and carefully place the acceptor plate into the donor plate, making sure the underside of the membrane is in contact with the drug-containing solutions in all wells. Replace the plate lid and incubate at 25 °C, 60 rpm for 16 h. After incubation, aliquots of 50 μL from each well of acceptor and donor plate are transferred into a 96-well plate. Add 450 μL of methanol (containing IS: 100 nM Alprazolam, 200 nM Caffeine, 100 nM Tolbutamide) into each well. Cover with plate lid. Vortex at 750 rpm for 100 s. Samples were centrifuged at 3220 × g for 20 min. Determine the compound concentrations by LC/MS/MS. The effective permeability (Pe), in units of centimeter per second, can be calculated using the following equation: LogPe=LogC×−Ln1−drugacceptor/drugequilibrium

For data set [4], the target named is T1, C481S mutant BTK (Homo sapiens, UniProt Q06187, C481S).
T1 construct: expressed in transfected cells; host or cells: XLA cells (gift from Dr. Woyach)
Briefly: BTK degradation in XLA cells overexpressing C481S mutant BTK (western blot). The class given is cell-based. The conditions noted are these: 24 h. On the procedure:
XLA cells overexpressing wild-type BTK or mutant C481S BTK were plated at the same cell number and density as the above experiments and were treated with RC-1, IRC-1, or RNC-1 at the dose of 1.6, 8.0, 40, 200, and 1000 nM for 24 h. After completion of treatment, all the cells were collected and processed for western blot analysis.
The collected cells and spleen tissues were lysed in RIPA lysis buffer (50 mM Tris-HCl, pH 7.4, 150 mM NaCl, 1% NP-40, 0.5% sodium deoxycholate, 0.1% SDS) supplemented with Halt™ Protease and Phosphatase Inhibitor Cocktail (Thermo Fisher Scientific, Cat. No. PI78440) immediately before use. Lysates were centrifuged at 15,000 × g for 10 min at 4 °C and the supernatant was quantified for total protein concentration using the Pierce BCA Protein Assay (Thermo Fisher Scientific, Cat. No. 23225). Thirty micrograms of protein were loaded onto sodium dodecyl sulfate−polyacrylamide gel for electrophoresis (Bio-Rad) and transferred onto PVDF membranes (Millipore, Cat. No. IPVH00010). […] Imaging was performed using the ECL Prime chemiluminescent western blot detection reagents (GE Healthcare, Cat. No. RPN2232) by visualization of the blots to X-Ray film or with an Imager (Kindle Biosciences, Cat. No. D1001). All western blots were subsequently processed and quantified with Imager software. Protein level was normalized to β-actin or GAPDH loading controls.

Data set [5] relates to Mino cells. Kind of data set: AlamarBlue cell viability assay, Mino. Type of data set: cell-based. The settings on record: for Mino Cell Viability%: Figure 2f, 5 replicates.
Experimental: The IC50 was calculated using GraphPad Prism software with a four-parameter dose-response curve fit.

Several values for one entry are separate records, joined by “and”; a condition that tells them apart may be missing. Identical values can stand only once. Entries after “also recorded” stand apart in the source; their conditions may differ.

BTK, sequence (Q06187 whole entry): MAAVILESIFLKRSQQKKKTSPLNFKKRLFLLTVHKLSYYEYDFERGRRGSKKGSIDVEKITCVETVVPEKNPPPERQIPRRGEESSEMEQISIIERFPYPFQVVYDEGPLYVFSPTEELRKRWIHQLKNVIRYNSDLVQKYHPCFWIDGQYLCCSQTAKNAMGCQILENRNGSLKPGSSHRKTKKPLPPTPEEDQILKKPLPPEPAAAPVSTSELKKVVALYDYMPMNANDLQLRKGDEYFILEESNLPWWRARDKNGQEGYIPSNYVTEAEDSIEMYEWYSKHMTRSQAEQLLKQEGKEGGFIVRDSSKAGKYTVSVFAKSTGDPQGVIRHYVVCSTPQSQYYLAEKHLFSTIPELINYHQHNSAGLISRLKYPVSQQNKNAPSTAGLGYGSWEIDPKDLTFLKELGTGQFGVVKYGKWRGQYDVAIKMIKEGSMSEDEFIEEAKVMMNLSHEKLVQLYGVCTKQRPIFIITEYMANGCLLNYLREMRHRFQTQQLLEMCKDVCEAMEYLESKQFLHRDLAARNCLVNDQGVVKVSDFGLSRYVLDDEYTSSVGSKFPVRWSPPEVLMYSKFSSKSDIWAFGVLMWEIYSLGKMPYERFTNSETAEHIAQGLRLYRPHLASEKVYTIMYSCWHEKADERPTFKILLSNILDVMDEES
T1 sequence (Q06187 whole entry C481S): as the sequence (Q06187 whole entry) above, with C481S counted along it

As to `CN1C(=O)CCC(N2C(=O)c3cccc(NCC(=O)NCCCN(C)C(C)(C)C=C(C#N)C(=O)N4CCCC(n5nc(-c6ccc(Oc7ccccc7)cc6)c6c(N)ncnc65)C4)c3C2=O)C1=O` (centres unmarked) [RC-1-Me], the “Quantification anti-BTK / anti-β-actin (BTK level vs DMSO)” value in data set [1] (Figure 2d, DMSO = 100 (mean)) stood at 91.1107. Moreover, the “BTK degradation (in words)” value in data set [1] (200 nM, 24 h (Fig. 2d)) is “cannot degrade BTK in cells”. Also, the IC50 in data set [2] turned out to be 4.2 µM. Also, the “Cell Viability (%)” value in data set [2] (1.25E-06 M) was 75.2061% and 69.0199% and 79.2231%; in data set [2] (1.56E-07 M), 95.5665% and 93.8239% and 93.1905%; in data set [2] (2.50E-06 M) it was 67.4512% and 61.3175% and 56.7459%; in data set [2] (3.13E-07 M) it was 94.477% and 92.288% and 91.2083%; in data set [2] (5.00E-06 M) it was 42.5652% and 49.5981% and 48.479%; in data set [2] (6.25E-07 M), 91.2247% and 87.9954% and 86.7647%. Further, in data set [2] (7.81E-08 M), the “Cell Viability (%)” value is 97.0795% and 100.847% and 94.9725%.
For the compound `CN(CC=CC(=O)N1CCCC(n2nc(-c3ccc(Oc4ccccc4)cc3)c3c(N)ncnc32)C1)CCCNC(=O)CNc1cccc2c1C(=O)N(C1CCC(=O)NC1=O)C2=O` (centres unmarked) [IRC-1], the recovery at 16 h, 10 μM in data set [3] was 17.4%. In addition, the Papp at 16 h, 10 μM in data set [3] is below 0.0245 ×10⁻⁶ cm/s. Besides, the “Quantification anti-BTK / anti-β-actin (BTK level vs DMSO)” value in data set [1] (Figure 2b, 8 nM, duplicates) is 93.1337 and 89.8918; in data set [1] (Figure 2b, 40 nM, duplicates), 73.5656 and 73.5943; in data set [1] (Figure 2b, 200 nM, duplicates), 64.1549 and 63.4726. Further, the “BTK degradation (in words)” value in data set [1] (indicated doses, 24 h) was “induced inefficient BTK degradation; also recorded: very little BTK degradation was observed”; in data set [4], “much more effective degradation of the BTK C481S mutant than its wild-type”.
In the case of `CC(C)(C)C=C(C#N)C(=O)N1CCCC(n2nc(-c3ccc(Oc4ccccc4)cc3)c3c(N)ncnc32)C1` (centres unmarked) [RC-Ctrl], the “Quantification anti-BTK / anti-β-actin (BTK level vs DMSO)” value in data set [1] (Figure 2d, DMSO = 100 (mean)) is listed as 83.2734. Besides, the “BTK degradation (in words)” value was “Neither RC-Ctrl, nor pomalidomide, nor a combination of both caused BTK degradation” in data set [1] (200 nM, 24 h (Fig. 2d)) and “neither the RC-1 warhead, nor pomalidomide, nor a combination of both caused BTK degradation” in data set [1] (200 nM, 24 h (Fig. 2d), listed as RC-1 warhead). Moreover, in data set [2], the IC50 is above 5 µM. Besides, the “Cell Viability (%)” value in data set [2] (1.25E-06 M) is 92.5899% and 86.5612% and 87.595%; in data set [2] (1.56E-07 M), 103.384% and 106.186% and 101.772%; in data set [2] (2.50E-06 M), 81.7599% and 80.9854% and 82.1702%; in data set [2] (3.13E-07 M), 99.5605% and 94.4048% and 98.8352%; in data set [2] (5.00E-06 M) it was 60.4937% and 62.4464% and 56.8706%; in data set [2] (6.25E-07 M), 97.5323% and 94.4409% and 89.8332%. Also, in data set [2] (7.81E-08 M), the “Cell Viability (%)” value was 103.555% and 102.055% and 101.769%.
`CN(CCCNC(=O)CNc1cccc2c1C(=O)N(C1CCC(=O)NC1=O)C2=O)CCCC(=O)N1CCCC(n2nc(-c3ccc(Oc4ccccc4)cc3)c3c(N)ncnc32)C1` (centres unmarked) [RNC-1] yielded a recovery at 16 h, 10 μM in data set [3] of 30%. In data set [3], this compound came in with a Papp at 16 h, 10 μM below 0.00209 ×10⁻⁶ cm/s. In addition, the “Quantification anti-BTK / anti-β-actin (BTK level vs DMSO)” value in data set [1] (Figure 2b, 8 nM, duplicates) was 97.1575 and 95.3789; in data set [1] (Figure 2b, 40 nM, duplicates) it was 69.0679 and 73.2452; in data set [1] (Figure 2b, 200 nM, duplicates) it was 33.5661 and 27.9942. The “Mino Cell Viability%” value was 58.0853% and 51.9026% and 45.6712% and 52.4594% in data set [5] (1.00E-06 M); 101.95% and 90.6294% and 68.165% and 98.7947% and 93.12% in data set [5] (1.60E-09 M); 37.8282% and 87.963% and 68.8682% and 84.564% and 91.6647% in data set [5] (2.00E-07 M); 102.731% and 88.3341% and 102.301% and 86.4979% and 82.7278% in data set [5] (3.20E-10 M); 90.0141% and 69.2003% and 110.3% and 97.7887% and 98.2185% in data set [5] (4.00E-08 M); 16.067% and 36.4022% and 19.085% and 31.8214% and 33.179% in data set [5] (5.00E-06 M). In data set [5] (8.00E-09 M), the “Mino Cell Viability%” value was 96.0404% and 89.3401% and 104.098% and 90.522% and 101.012%. In data set [5] (Homo sapiens, Mino cells, 72 h, Alamar Blue), this compound had an IC50 of 1 µM.
